The values that follow come from patent publication US12173002B2, “PRMT5 inhibitors and methods of use” (SHANGHAI APEIRON THERAPEUTICS COMPANY LIMITED, priority 2022, dated 2024).

Assay [1] relates to HCT-116 MTAP(−/−) deficient cells. In words: Inhibitory activity on proliferation of HCT-116 MTAP(−/−) deficient cells (Cell-Titer Glo, 8 days). Type of assay: cell-based. The conditions noted are these: Homo sapiens, HCT-116, 192 h, 8 days incubation. Here is the method:
Test 1: Compound's inhibitory activity on proliferation of HCT-116 MTAP(−/−) deficient cells. P Materials and Cells: HCT-116 MTAP(−/−) deficient cells obtained from Kyinno Bio (China); RPMI-1640 medium, fetal bovine serum, and penicillin-streptomycin purchased from Thermo Fisher Scientific (America); 384-well plates from PerkinElmer (America); Cell-Titer Glo assay kit from Promega (America).
Cell Culture: HCT116 MTAP(−/−) deficient cells were cultured in RPMI 1640 medium containing 10% fetal bovine serum and 1% penicillin-streptomycin at 37° C., 5% CO2. Only cells in logarithmic growth phase were used for experiments.
Cell Proliferation Inhibition Assay: The compound's inhibitory activity on HCT-116 MTAP(−/−) deficient cells was assessed using the Cell-Titer Glo assay kit. Adjusting cell concentration, 40 μL was seeded into a 384-well plate and cultured overnight at 37° C., 5% CO2. Each well received 40 nL of the compound, achieving concentrations from 0 to 10,000 nM (starting concentration 10,000 nM, 3-fold dilution, 10 points), with 0.1% DMSO. The cell plate was incubated for 8 days at 37° C., 5% CO2. Cell-Titer Glo reagent (40 μL) was added to measure cell viability.

In assay [2] the test system is HCT-116 MTAP wild-type cells. Description: Inhibitory activity on proliferation of HCT-116 MTAP wild-type cells (Cell-Titer Glo, 8 days). The conditions noted are these: Homo sapiens, HCT-116, 192 h, 8 days incubation. It is filed as cell-based. Here is the method: Test 2: Compound's inhibitory activity on proliferation of HCT-116 MTAP wild-type cells.
Materials and Cells: HCT-116 MTAP wild-type cells obtained from Kyinno Bio (China); RPMI-1640 medium, fetal bovine serum, and penicillin-streptomycin purchased from Thermo Fisher Scientific (America); 384-well plates from PerkinElmer (America); Cell-Titer Glo assay kit from Promega (America).
Cell Culture: HCT116 MTAP wild-type cells were cultured in RPMI 1640 medium containing 10% fetal bovine serum and 1% penicillin-streptomycin at 37° C., 5% CO2. Only cells in logarithmic growth phase were used for experiments.
Cell Proliferation Inhibition Assay: The compound's inhibitory activity on HCT-116 MTAP wild-type cells was assessed using the Cell-Titer Glo assay kit. Adjusting cell concentration, 40 μL was seeded into a 384-well plate and cultured overnight at 37° C., 5% CO2. Each well received 40 nL of the compound, achieving concentrations from 0 to 10,000 nM (starting concentration 10,000 nM, 3-fold dilution, 10 points), with 0.1% DMSO. The cell plate was incubated for 8 days at 37° C., 5% CO2. Cell-Titer Glo reagent (40 μL) was added to measure cell viability.

A word on the IC50: it is the concentration needed to halve the response being measured. Read a low IC50 as higher potency.

Structures are written as SMILES.

For `Nc1nc2ccc(C(=O)N(C3CC3)[C@@H]3COc4cc(Br)ccc43)cc2n2cncc12` (single isomer, unassigned) [Example 82], the IC50 was determined as 52.9 nM in assay [1] and 1920 nM in assay [2].
Regarding `Nc1nc2ccc(C(=O)N(C3CC3)[C@H]3COc4cc(C(F)(F)F)ccc43)cc2n2cncc12` (single isomer, unassigned) [Example 83], the IC50 in assay [1] amounted to 2640 nM; in assay [2] it was 4700 nM.
For `Nc1nc2cnc(C(=O)N(C3CC3)[C@H]3COc4cc(C(F)(F)F)ccc43)cc2n2cncc12` (single isomer, unassigned) [Example 87], the IC50 in assay [1] amounted to 9030 nM; in assay [2] it was 10800 nM.
Turning to `Nc1nc2cnc(C(=O)N(C3CC3)[C@@H]3COc4cc(C(F)(F)F)ccc43)cc2n2cncc12` (single isomer, unassigned) [Example 88], the IC50 in assay [1] is 24.1 nM; in assay [2] it was 1850 nM.
In the case of `CN(C(=O)c1ccc2nc(N)c3cncn3c2c1)[C@H]1COc2nc(C(F)(F)F)ccc21` (single isomer, unassigned) [Example 89], the values for the IC50 in assay [1] and in assay [2] were greater than 3000 nM and greater than 10000 nM, respectively.
As for `CN(C(=O)c1ccc2nc(N)c3cncn3c2c1)[C@@H]1COc2nc(C(F)(F)F)ccc21` (single isomer, unassigned) [Example 90], the IC50 in assay [1] was 36.4 nM; in assay [2], greater than 10000 nM.
Take `N#Cc1ccc2c(c1)OC[C@@H]2N(C(=O)c1ccc2nc(N)c3cncn3c2c1)C1CC1` (single isomer, unassigned) [Example 91]: the IC50 is 2180 nM in assay [1] and greater than 20000 nM in assay [2].
`N#Cc1ccc2c(c1)OC[C@H]2N(C(=O)c1ccc2nc(N)c3cncn3c2c1)C1CC1` (single isomer, unassigned) [Example 92]: the figures for the IC50 in assay [1] and in assay [2] were 46.6 nM and 4750 nM, respectively.
Regarding `CN(C(=O)c1ccc2nc(N)c3cncn3c2c1)[C@H]1COCc2ccc(C(F)(F)F)cc21` (single isomer, unassigned) [Example 93], the IC50 in assay [1] is greater than 3000 nM; in assay [2], greater than 10000 nM.
In the case of `CN(C(=O)c1ccc2nc(N)c3cncn3c2c1)[C@@H]1COCc2ccc(C(F)(F)F)cc21` (single isomer, unassigned) [Example 94], the IC50 in assay [1] stood at 80.8 nM; in assay [2], 5170 nM.
`CN(C(=O)c1ccc2nc(N)c3cncn3c2c1)[C@H]1COc2cc(S(F)(F)(F)(F)F)ccc21` (single isomer, unassigned) [Example 103]: the IC50 in assay [1] was 931 nM; in assay [2], 6260 nM.
Take `CN(C(=O)c1ccc2nc(N)c3cncn3c2c1)C1COCc2ccc(C(F)(F)F)cc21` (stereo not drawn) [Example 8, 4-amino-N-methyl-N-(6-(trifluoromethyl)isochroman-4-yl) imidazo[1,5-a] quinoxaline-8-carboxamide]: the IC50 in assay [1] worked out at 106 nM; in assay [2], 6480 nM.
The like results for `CN(C(=O)c1cc2c(cc1C#N)nc(N)c1cncn12)[C@@H]1COc2cc(C(F)(F)F)ccc21` [Example 14, (S)-4-amino-7-cyano-N-methyl-N-(6-(trifluoromethyl)-2,3-dihydrobenzofuran-3-yl)imidazo[1,5-a] quinoxaline-8-carboxamide] were, in that order, 14.7 nM and 1280 nM.
As for `CN(C(=O)c1cc2c(cc1Cl)nc(N)c1cncn12)[C@@H]1COc2cc(C(F)(F)F)ccc21` [Example 27, (S)-4-amino-7-chloro-N-methyl-N-(6-(trifluoromethyl)-2,3-dihydrobenzofuran-3-yl)imidazo[1,5-a]quinoxaline-8-carboxamide], the IC50 in assay [1] was 4.4 nM; in assay [2], 842 nM.
The like results for `CN(C(=O)c1cc2c(cc1F)nc(N)c1cncn12)[C@@H]1COc2cc(-c3cnn(C)c3)ccc21` [Example 34, (S)-4-amino-7-fluoro-N-methyl-N-(6-(1-methyl-1H-pyrazol-4-yl)-2,3-dihydrobenzofuran-3-yl)imidazo[1,5-a] quinoxaline-8-carboxamide] were, in that order, 29.6 nM and 6570 nM.
